Primed or numbered codes have the meaning given here. Where no end group is shown, it is not given here. [ ]: non-standard residue; d: D form. FITC′ = fluorescein isothiocyanate label at the N-terminus

This experiment deals with Mut-p53. Description: Total activity score over combined assays (Table 8). The following applies: for Activity Score: Table 10 summary of activity of the peptides tested; for AS (Activity Score): total score of Table 7. Set-up: scale not given here. An excerpt: Several alternative and complementary methods to screen lead peptide candidates for conformational and functional effects on Mut-p53 were employed. For increased penetration of peptide across cell membranes each peptide contains 3-6 Arginine residues either as part of its sequence or added either at its N-terminus or its C-terminus. […] In-vitro based assays for evaluation were first performed, such as ELISA for assessment of p53 conformation and sequence-specific DNA binding of p53.

Take pCAP86 (FGSHHEL): the “Activity Score” value is 0 and the “AS (Activity Score)” value is recorded as 0.
On to pCAP87 (HANLHHT), for which the “Activity Score” value came out at 37 and the “AS (Activity Score)” value turned out to be 37.
In the case of pCAP88 (SYQTMQP), the “Activity Score” value was determined as 6 and the “AS (Activity Score)” value is recorded as 6.
Take pCAP89 (SILTLSCRCRLRLWR): the “Activity Score” value is on record as 8 and the “AS (Activity Score)” value was found to be 8.
With pCAP90 (SCRCRLR), the “Activity Score” value came to 12 and the “AS (Activity Score)” value was found to be 12.
With pCAP91 (STTHIHA), the “Activity Score” value came to 7 and the “AS (Activity Score)” value amounted to 7.
In the case of pCAP92 (FPHLVSSLTT), the “Activity Score” value is listed as 7 and the “AS (Activity Score)” value is 7.
For the substance pCAP93 (ATQHHYIK), the “Activity Score” value was 17 and the “AS (Activity Score)” value was determined as 17.
For pCAP94 (LRFIDYP), the “Activity Score” value is 4 and the “AS (Activity Score)” value worked out at 4.
For pCAP95 (HQIHRNHTY), the “Activity Score” value was 8 and the “AS (Activity Score)” value is given as 8.
Take pCAP96 (GTVDHHA): the “Activity Score” value stood at 0 and the “AS (Activity Score)” value is reported as 0.
Turning to pCAP97 (WNHHHSTPHPAH), the “Activity Score” value turned out to be 47 and the “AS (Activity Score)” value came to 47.
As to pCAP98 (HSSGHNFVLVRQ), the “Activity Score” value is listed as 2 and the “AS (Activity Score)” value worked out at 2.
Take pCAP99 (GLHLFTTDRQGW): the “Activity Score” value was 7 and the “AS (Activity Score)” value amounted to 7.
As for pCAP100 (FPGHTIH), the “Activity Score” value came out at 19 and the “AS (Activity Score)” value was 19.
Regarding pCAP101 (IRFILIR), the “Activity Score” value is 3 and the “AS (Activity Score)” value is listed as 3.
For the substance pCAP102 (SSVHHRG), the “Activity Score” value is 3 and the “AS (Activity Score)” value amounted to 3.
pCAP103 (LRRQLQL): the “Activity Score” value is recorded as 3 and the “AS (Activity Score)” value is given as 3.
As to pCAP104 (LLRLGLI), the “Activity Score” value worked out at 21 and the “AS (Activity Score)” value stood at 21.
As for pCAP105 (SRIVLGW), the “Activity Score” value is 5 and the “AS (Activity Score)” value worked out at 5.
For the substance pCAP106 (LIRRCSLQR), the “Activity Score” value was 8 and the “AS (Activity Score)” value is 8.
For pCAP107 (DRLSVFLFIM), the “Activity Score” value is on record as 0 and the “AS (Activity Score)” value is recorded as 0.
In the case of pCAP108 (IIRGNFLIGGRL), the “Activity Score” value is recorded as 17 and the “AS (Activity Score)” value is listed as 17.
As for pCAP109 (GPIKHHLQHH), the “Activity Score” value was 4 and the “AS (Activity Score)” value amounted to 4.
As to pCAP110 (LFILVFR), the “Activity Score” value was determined as 2 and the “AS (Activity Score)” value stood at 2.
As to pCAP111 (SNIHHQV), the “Activity Score” value was found to be 5 and the “AS (Activity Score)” value turned out to be 5.
For the substance pCAP112 (TTSHHPK), the “Activity Score” value was 2 and the “AS (Activity Score)” value is on record as 2.
As for pCAP113 (HTTAHTH), the “Activity Score” value was 3 and the “AS (Activity Score)” value was determined as 3.
Turning to pCAP114 (AISHHTR), the “Activity Score” value turned out to be 0 and the “AS (Activity Score)” value turned out to be 0.
With pCAP115 (HPHNHTVHNVVY), the “Activity Score” value amounted to 3 and the “AS (Activity Score)” value came to 3.
pCAP116 (KHHPFDHRLGNQ): the “Activity Score” value came out at 0 and the “AS (Activity Score)” value is listed as 0.
Turning to pCAP117 (DHSKFVPLFVRQ), the “Activity Score” value was found to be 3 and the “AS (Activity Score)” value was 3.
pCAP118 (SNHHHRHHTNTH): the “Activity Score” value was 13 and the “AS (Activity Score)” value came out at 13.
Turning to pCAP119 (HSAHHTM), the “Activity Score” value was determined as 0 and the “AS (Activity Score)” value was 0.
As to pCAP120 (SIRTLGRFLIIRV), the “Activity Score” value is listed as 3 and the “AS (Activity Score)” value is given as 3.
In the case of pCAP121 (LTLMRLRIIG), the “Activity Score” value stood at 5 and the “AS (Activity Score)” value is reported as 5.
Take pCAP122 (HSYSPYYTFRQH): the “Activity Score” value was 5 and the “AS (Activity Score)” value is 5.
In the case of pCAP123 (GLCRIIL), the “Activity Score” value worked out at 3 and the “AS (Activity Score)” value came out at 3.
In the case of pCAP124 (VMVLFRILRGSM), the “Activity Score” value is 2 and the “AS (Activity Score)” value was determined as 2.
On to pCAP125 (ELGLHRH), for which the “Activity Score” value turned out to be 0 and the “AS (Activity Score)” value was determined as 0.
Consider pCAP126 (RRLRICV), for which the “Activity Score” value is on record as 0 and the “AS (Activity Score)” value is 0.
pCAP127 (SPPIRHH): the “Activity Score” value was found to be 3 and the “AS (Activity Score)” value amounted to 3.
Regarding pCAP128 (CILRLWW), the “Activity Score” value worked out at 19 and the “AS (Activity Score)” value worked out at 19.
Take pCAP130 (EVTFRHSVVRRRRRRRRRRR): the “Activity Score” value was 13 and the “AS (Activity Score)” value was determined as 13.
Take pCAP131 (LPNPPERHHRRRRRRRRRRR): the “Activity Score” value was 18 and the “AS (Activity Score)” value was 18.
For pCAP132 (NHPWQFPNRWTRRRRRR), the “Activity Score” value is 7 and the “AS (Activity Score)” value is recorded as 7.
For the substance pCAP133 (SLLIGFGIIRSRRRRRRRR), the “Activity Score” value stood at 10 and the “AS (Activity Score)” value was determined as 10.
In the case of pCAP134 (IRILMFLIGCGRRRRRRRR), the “Activity Score” value is on record as 40 and the “AS (Activity Score)” value is 40.
As for pCAP135 (HTDSHPHHHHPHRRRRR), the “Activity Score” value is reported as 10 and the “AS (Activity Score)” value worked out at 10.
For the substance pCAP136 (SILTLRLRRLRRRRRRRR), the “Activity Score” value is 14 and the “AS (Activity Score)” value was 14.
Regarding pCAP137 (GAMHLPWHMGTRRRRRR), the “Activity Score” value was 8 and the “AS (Activity Score)” value is given as 8.
pCAP138 (YPTQGHLRRRRRRRRRRRR): the “Activity Score” value came to 11 and the “AS (Activity Score)” value was found to be 11.
Consider pCAP139 (MHPPDWYHHTPKRRRRRR), for which the “Activity Score” value came out at 12 and the “AS (Activity Score)” value is on record as 12.
Take pCAP140 (TDSHSHHRRRRRRRRRRR): the “Activity Score” value is 6 and the “AS (Activity Score)” value turned out to be 6.
As for pCAP141 (SWQALALYAAGWRRRRRR), the “Activity Score” value is recorded as 29 and the “AS (Activity Score)” value amounted to 29.
In the case of pCAP142 (TLYLPHWHRHRRRRRRRRRR), the “Activity Score” value stood at 14 and the “AS (Activity Score)” value is listed as 14.
Take pCAP143 (IPMNFTSHSLRQRRRRRRRRR): the “Activity Score” value is recorded as 6 and the “AS (Activity Score)” value came out at 6.
With pCAP144 (SFILFIRRGRLGRRRRRRRRR), the “Activity Score” value was found to be 49 and the “AS (Activity Score)” value is 49.
Take pCAP145 (HSSHHHPVHSWNRRRRRRR): the “Activity Score” value stood at 7 and the “AS (Activity Score)” value turned out to be 7.
Take pCAP146 (HANLHHTRRRRRRRRRRR): the “Activity Score” value came out at 11 and the “AS (Activity Score)” value worked out at 11.
As for pCAP147 (ATQHHYIKRRRRRRRRRRR), the “Activity Score” value turned out to be 10 and the “AS (Activity Score)” value worked out at 10.
With pCAP148 (WNHHHSTPHPRRRRRRRRRR), the “Activity Score” value was 43 and the “AS (Activity Score)” value turned out to be 43.
As for pCAP149 (FPGHTIHRRRRRRRRRRR), the “Activity Score” value is on record as 13 and the “AS (Activity Score)” value came out at 13.
In the case of pCAP150 (IIRGNFLIGGRLRRRRRRRRR), the “Activity Score” value stood at 26 and the “AS (Activity Score)” value is on record as 26.
Turning to pCAP151 (CILRLWWRRRRRRRRRRR), the “Activity Score” value was 33 and the “AS (Activity Score)” value is 33.
As for pCAP152 (YRRLLIGMRRRRRRRRRRRR), the “Activity Score” value is 11 and the “AS (Activity Score)” value was determined as 11.
Consider pCAP153 (YWSAPQPATRRRRRRRRRRR), for which the “Activity Score” value was 6 and the “AS (Activity Score)” value is given as 6.
On to pCAP154 (LRCLLLLIGRVGRKKRRQRR), for which the “Activity Score” value is on record as 57 and the “AS (Activity Score)” value is 57.
Consider pCAP155 (IRGRIIRRRRRRRRRR), for which the “Activity Score” value turned out to be 41 and the “AS (Activity Score)” value is reported as 41.
Turning to pCAP156 (VPHIHEFTRRRRRRRR), the “Activity Score” value is given as 0 and the “AS (Activity Score)” value was 0.
Consider pCAP157 (SFILFIRRGRLGRKKRRQRRRP), for which the “Activity Score” value was determined as 37 and the “AS (Activity Score)” value was 37.
As to pCAP158 (SFILFIRRGRLGRGDR), the “Activity Score” value worked out at 18 and the “AS (Activity Score)” value is given as 18.
Regarding “pCAP159 ([dR][dR][dR][dR][dR][dR][dR][dR]G[dL][dR]G[dR][dR][dI][dF][dL][dI][dF][dS])”, the “Activity Score” value is listed as 53 and the “AS (Activity Score)” value stood at 53.
Take pCAP160 ({FITC′}-SFILFIRRGRLGRRRRRRRRR): the “Activity Score” value was determined as 24 and the “AS (Activity Score)” value was 24.
As to pCAP161 (HNAH), the “Activity Score” value worked out at 29 and the “AS (Activity Score)” value came out at 29.
pCAP162 (SILT): the “Activity Score” value came out at 2 and the “AS (Activity Score)” value was 2.
Turning to pCAP163 (LTLS), the “Activity Score” value amounted to 4 and the “AS (Activity Score)” value turned out to be 4.
With pCAP164 (PLTLI), the “Activity Score” value worked out at 0 and the “AS (Activity Score)” value amounted to 0.
As for pCAP165 (SLLIG), the “Activity Score” value worked out at 0 and the “AS (Activity Score)” value is listed as 0.
Regarding pCAP166 (KPPER), the “Activity Score” value turned out to be 0 and the “AS (Activity Score)” value was 0.
On to pCAP167 (FILIR), for which the “Activity Score” value is listed as 5 and the “AS (Activity Score)” value is 5.
